Assay [1] concerns the target T1, Muscarinic acetylcholine receptor M1 (Homo sapiens, UniProt P11229).
T1 sequence (P11229 whole entry): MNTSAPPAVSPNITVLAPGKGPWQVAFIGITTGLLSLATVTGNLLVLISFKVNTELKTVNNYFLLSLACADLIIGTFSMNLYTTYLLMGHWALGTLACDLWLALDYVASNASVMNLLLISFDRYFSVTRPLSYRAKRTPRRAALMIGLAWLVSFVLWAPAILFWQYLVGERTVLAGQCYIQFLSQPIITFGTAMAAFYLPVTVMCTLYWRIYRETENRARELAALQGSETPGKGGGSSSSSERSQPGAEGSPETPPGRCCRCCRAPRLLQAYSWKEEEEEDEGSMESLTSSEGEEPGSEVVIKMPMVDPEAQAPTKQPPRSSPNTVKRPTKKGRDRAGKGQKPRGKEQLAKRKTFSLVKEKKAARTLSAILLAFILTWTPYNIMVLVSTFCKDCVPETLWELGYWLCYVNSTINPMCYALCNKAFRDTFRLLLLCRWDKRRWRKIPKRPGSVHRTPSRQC
Briefly: PDSP Secondary Binding target: CHRM1 - Compounds are tested at 10 uM concentration, plate are incubated at room temperature in the dark for 90 minutes. Reaction are stopped by vacuum filtration onto 0.3% polyethyleneimine soaked filter mats using Filtermate harvester. Scintillation cocktail is then melted onto microwave-dried filters on a hot plate and the radio activity is counted in Microbia counter.

For assay [2], the target named is Kappa-type opioid receptor (Homo sapiens, UniProt P41145). In words: PDSP Secondary Binding target: OPRK1 - Compounds are tested at 10 uM concentration, plate are incubated at room temperature in the dark for 90 minutes. Reaction are stopped by vacuum filtration onto 0.3% polyethyleneimine soaked filter mats using Filtermate harvester. Scintillation cocktail is then melted onto microwave-dried filters on a hot plate and the radio activity is counted in Microbia counter.

For another assay, the target named is Translocator protein (Homo sapiens, UniProt P30536). In words: PDSP Secondary Binding target: TSPO - Compounds are tested at 10 uM concentration, plate are incubated at room temperature in the dark for 90 minutes. Reaction are stopped by vacuum filtration onto 0.3% polyethyleneimine soaked filter mats using Filtermate harvester. Scintillation cocktail is then melted onto microwave-dried filters on a hot plate and the radio activity is counted in Microbia counter.

Assay [3] deals with Delta-type opioid receptor (Homo sapiens, UniProt P41143). In words: PDSP Secondary Binding target: OPRD1 - Compounds are tested at 10 uM concentration, plate are incubated at room temperature in the dark for 90 minutes. Reaction are stopped by vacuum filtration onto 0.3% polyethyleneimine soaked filter mats using Filtermate harvester. Scintillation cocktail is then melted onto microwave-dried filters on a hot plate and the radio activity is counted in Microbia counter.

In assay [4] the target is Beta-1 adrenergic receptor (Homo sapiens, UniProt P08588). Briefly: PDSP Secondary Binding target: ADRB1 - Compounds are tested at 10 uM concentration, plate are incubated at room temperature in the dark for 90 minutes. Reaction are stopped by vacuum filtration onto 0.3% polyethyleneimine soaked filter mats using Filtermate harvester. Scintillation cocktail is then melted onto microwave-dried filters on a hot plate and the radio activity is counted in Microbia counter.

The target of assay [5] is T2, Muscarinic acetylcholine receptor M2 (Homo sapiens, UniProt P08172).
T2 sequence (P08172 whole entry): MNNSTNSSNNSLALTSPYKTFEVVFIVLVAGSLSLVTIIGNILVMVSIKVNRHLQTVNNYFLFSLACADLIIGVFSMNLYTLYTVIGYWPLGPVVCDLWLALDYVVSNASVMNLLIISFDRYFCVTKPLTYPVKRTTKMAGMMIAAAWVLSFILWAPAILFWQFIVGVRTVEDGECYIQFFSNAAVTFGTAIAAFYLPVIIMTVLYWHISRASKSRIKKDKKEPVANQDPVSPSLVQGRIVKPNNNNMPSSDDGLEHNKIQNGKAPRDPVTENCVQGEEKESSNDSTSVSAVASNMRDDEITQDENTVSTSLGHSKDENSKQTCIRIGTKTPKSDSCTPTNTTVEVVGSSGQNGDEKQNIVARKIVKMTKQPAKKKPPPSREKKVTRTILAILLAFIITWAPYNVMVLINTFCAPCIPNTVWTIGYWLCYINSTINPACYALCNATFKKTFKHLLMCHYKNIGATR
In words: PDSP Secondary Binding target: CHRM2 - Compounds are tested at 10 uM concentration, plate are incubated at room temperature in the dark for 90 minutes. Reaction are stopped by vacuum filtration onto 0.3% polyethyleneimine soaked filter mats using Filtermate harvester. Scintillation cocktail is then melted onto microwave-dried filters on a hot plate and the radio activity is counted in Microbia counter.

In the next assay the target is Histamine H4 receptor (Homo sapiens, UniProt Q9H3N8). Briefly: PDSP Secondary Binding target: HRH4 - Compounds are tested at 10 uM concentration, plate are incubated at room temperature in the dark for 90 minutes. Reaction are stopped by vacuum filtration onto 0.3% polyethyleneimine soaked filter mats using Filtermate harvester. Scintillation cocktail is then melted onto microwave-dried filters on a hot plate and the radio activity is counted in Microbia counter.

For orientation: Ki means the equilibrium dissociation constant of an inhibitor or competing ligand from its target.

Each structure is given as a SMILES string. Where a name gives a salt, the structure may show the parent alone. Where only a bound is given, the exact number is not on record here.

Sequence of Beta-1 adrenergic receptor (P08588 whole entry): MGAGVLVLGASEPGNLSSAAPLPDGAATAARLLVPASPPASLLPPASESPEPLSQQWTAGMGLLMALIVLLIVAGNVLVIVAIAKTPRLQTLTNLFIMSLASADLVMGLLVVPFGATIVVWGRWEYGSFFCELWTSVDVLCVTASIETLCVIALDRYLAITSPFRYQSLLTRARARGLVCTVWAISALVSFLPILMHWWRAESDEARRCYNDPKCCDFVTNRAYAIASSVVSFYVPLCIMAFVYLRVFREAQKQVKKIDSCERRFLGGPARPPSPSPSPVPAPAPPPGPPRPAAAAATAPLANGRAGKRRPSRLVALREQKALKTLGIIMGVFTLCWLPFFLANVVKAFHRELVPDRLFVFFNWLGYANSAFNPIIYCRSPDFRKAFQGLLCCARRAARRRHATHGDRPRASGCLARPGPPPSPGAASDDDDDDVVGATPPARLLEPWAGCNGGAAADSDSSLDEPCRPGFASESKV
Sequence of Kappa-type opioid receptor (P41145 whole entry): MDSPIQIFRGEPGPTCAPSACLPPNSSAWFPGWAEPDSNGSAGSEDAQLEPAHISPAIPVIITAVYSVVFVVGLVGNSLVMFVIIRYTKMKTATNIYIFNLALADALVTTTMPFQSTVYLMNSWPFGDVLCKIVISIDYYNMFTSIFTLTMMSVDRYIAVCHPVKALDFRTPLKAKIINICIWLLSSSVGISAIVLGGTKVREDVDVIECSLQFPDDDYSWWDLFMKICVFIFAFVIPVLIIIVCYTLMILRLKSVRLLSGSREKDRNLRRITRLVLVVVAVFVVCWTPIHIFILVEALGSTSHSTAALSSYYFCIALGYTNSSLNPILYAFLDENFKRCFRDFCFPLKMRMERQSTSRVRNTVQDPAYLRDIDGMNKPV
Sequence of Translocator protein (P30536 whole entry): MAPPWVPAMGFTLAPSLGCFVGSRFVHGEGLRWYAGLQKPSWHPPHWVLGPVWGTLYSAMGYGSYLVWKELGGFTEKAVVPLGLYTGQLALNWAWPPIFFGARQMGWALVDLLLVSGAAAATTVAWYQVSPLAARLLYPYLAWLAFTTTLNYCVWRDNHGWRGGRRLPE
Sequence of Histamine H4 receptor (Q9H3N8 whole entry): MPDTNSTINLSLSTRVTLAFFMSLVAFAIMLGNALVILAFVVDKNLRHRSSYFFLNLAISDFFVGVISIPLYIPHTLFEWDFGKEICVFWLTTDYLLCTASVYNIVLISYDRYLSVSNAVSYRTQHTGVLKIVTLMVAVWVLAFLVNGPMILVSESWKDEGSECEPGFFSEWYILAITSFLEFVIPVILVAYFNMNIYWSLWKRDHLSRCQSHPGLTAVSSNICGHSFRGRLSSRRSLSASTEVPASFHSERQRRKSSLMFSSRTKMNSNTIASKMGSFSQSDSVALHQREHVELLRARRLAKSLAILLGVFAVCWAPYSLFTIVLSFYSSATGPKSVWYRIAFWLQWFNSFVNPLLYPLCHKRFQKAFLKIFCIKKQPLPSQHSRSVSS
Sequence of Delta-type opioid receptor (P41143 whole entry): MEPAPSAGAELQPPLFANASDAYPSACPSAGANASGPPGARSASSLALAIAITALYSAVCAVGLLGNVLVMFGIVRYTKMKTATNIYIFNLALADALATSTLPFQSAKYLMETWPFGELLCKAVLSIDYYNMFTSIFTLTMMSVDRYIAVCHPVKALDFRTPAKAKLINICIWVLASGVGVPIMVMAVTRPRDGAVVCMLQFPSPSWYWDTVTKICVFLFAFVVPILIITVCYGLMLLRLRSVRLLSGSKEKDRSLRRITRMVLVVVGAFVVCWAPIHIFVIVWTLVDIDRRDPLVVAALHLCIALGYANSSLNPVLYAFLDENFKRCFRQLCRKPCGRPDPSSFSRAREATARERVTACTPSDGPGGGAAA

`CN1C2CCC1CC(OC(c1ccc(F)cc1)c1ccc(F)cc1)C2` (stereo not drawn) registered an inhibition constant (Ki) in assay [1] of 9.74 nM.

In the case of `COC(=O)C1=C(C)NC(C)=C(C(=O)OCCCN2CCC(c3ccccc3)(c3ccccc3)CC2)[C@H]1c1cccc([N+](=O)[O-])c1` [NIGULDIPINE], the inhibition constant Ki in assay [2] was found to be 347 nM; on Translocator protein it was 953 nM; in assay [3], 399 nM. As for `COc1cccc([C@@H](C)NCCCc2ccccc2Cl)c1` [TECALCET HYDROCHLORIDE], the Ki in assay [2] was determined as 1400 nM. Turning to `CCc1nn(CCCN2CCN(c3cccc(Cl)c3)CC2)c(=O)n1CCOc1ccccc1` [NEFAZODONE HYDROCHLORIDE], on Translocator protein, affinity was put at a Ki of 1990 nM.

On to `CCOC(=O)c1c(C)[nH]c2ccc3c(c12)CN1CCc2cc(OC)ccc2C1O3` (stereo not drawn), for which affinity in assay [2] was put at a Ki of 1940 nM. On to `Clc1cccc(COc2cncc(N3CCNCC3)n2)c1`, for which the Ki in assay [1] worked out at 955 nM; in assay [4], 2030 nM. In the case of `C[C@@H](NCCCc1cccc(C(F)(F)F)c1)c1cccc2ccccc12` [CINACALCET HYDROCHLORIDE], the Ki in assay [2] worked out at 444 nM. In the case of `O=S1(=O)c2cccc3cccc(c23)N1CCCN1CCN(c2ccc(F)cc2)CC1` [FANANSERIN], in assay [2], the affinity, expressed as Ki, was 2870 nM. With `CN1CCN(c2ccc(Nc3c4ccccc4nc4ccccc34)cc2)CC1`, the Ki in assay [1] worked out at 717 nM; in assay [5], 204 nM. With `Cc1nc(-c2ccc(-c3ccc(C(=O)N4CCc5cc6c(cc54)C4(CCN(C)CC4)CO6)cc3)c(C)c2)no1` [SB-224289], the Ki in assay [1] worked out at 1260 nM. Turning to `Cc1cn2cc(CC(=O)N3CCC4(CC3)CN(Cc3ccc(-n5nccn5)cc3Cl)C4)nc2s1`, the Ki in assay [1] came to 846 nM; in assay [5], 243 nM. `COc1ccc(NS(=O)(=O)c2sc3ccc(Cl)cc3c2C)cc1N1CCNCC1`: the Ki in assay [2] is 898 nM; in assay [4], 4460 nM.

On to `Cc1c(P(=S)(c2ccccc2)c2ccccc2)n2ccccc2[n+]1C/C=C/c1ccccc1`, for which the Ki worked out at 118 nM in assay [2], 1180 nM in assay [1] and 805 nM in assay [5]. As for `CN(C)C(=O)N[C@H]1CC[C@H](CCN2CCN(c3cccc(Cl)c3Cl)CC2)CC1` [CARIPRAZINE HYDROCHLORIDE], the Ki in assay [4] was found to be 222 nM.

Take `Cc1nc2sccn2c(=O)c1CCN1CCC(=C(c2ccc(F)cc2)c2ccc(F)cc2)CC1` [RITANSERIN]: the affinity in assay [2], expressed as Ki, was 1450 nM. Turning to `Cc1cc(C)cc(-c2cnc3cc(Cl)c(-c4cccc(O)c4)cc3c2OCCCN)c1`, affinity on Translocator protein was put at a Ki of 522 nM. As for `CCc1ccc(OCc2ccccc2C(=O)Nc2ccc3nc(C)cc(N)c3c2)cc1`, the results for the Ki (at Translocator protein; in assay [1]) were 4010 nM and 2330 nM, respectively. For the compound `S=C(NCCCc1c[nH]cn1)NCCCN(Cc1ccc(Cl)c(Cl)c1)c1ccc(Br)cn1`, the Ki amounted to 1110 nM in assay [2] and 2580 nM in assay [1]. Turning to `CN1CCC(=C2c3ccccc3CC(=O)c3sccc32)CC1` [KETOTIFEN FUMARATE], the Ki in assay [5] worked out at 244 nM.

With `COc1ccc(NC(=O)c2ccc(-c3ccc(-c4noc(C)n4)cc3C)cc2)cc1OCCN(C)C`, the results for the Ki in assay [1] and in assay [5] were 1910 nM and 641 nM, respectively. As for `COc1cc(-n2cnc3cc(-c4ccc(Cl)cc4)sc3c2=O)ccc1OCCN1CCCC1`, the figures for the Ki (on Histamine H4 receptor; in assay [1]) were > 10000 nM and 1240 nM, respectively.
